Measured values taken from paper PMC7321301, “Characteristics of New Peptides GQLGEHGGAGMG, GEHGGAGMGGGQFQPV, EQGFLPGPEESGR, RLARAGLAQ, YGNPVGGVGH, and GNPVGGVGHGTTGT as Inhibitors of Enzymes Involved in Metabolic Syndrome and Antimicrobial Potential” (Molecules, 2020).
Read-outs that look alike come from different tables or passages of the source. No end group written: not given here.

Tests used:
Assay type in all cases: biochemical
[1] = target: angiotensin converting enzyme (ACE) (Homo sapiens, UniProt P12821); test: ACE inhibitor activity (HHL substrate, OPA) and kinetics; conditions: mean ± SD, triplicate; nd = not detected
Sequence of angiotensin converting enzyme (ACE) (P12821 30-1306, species assumed): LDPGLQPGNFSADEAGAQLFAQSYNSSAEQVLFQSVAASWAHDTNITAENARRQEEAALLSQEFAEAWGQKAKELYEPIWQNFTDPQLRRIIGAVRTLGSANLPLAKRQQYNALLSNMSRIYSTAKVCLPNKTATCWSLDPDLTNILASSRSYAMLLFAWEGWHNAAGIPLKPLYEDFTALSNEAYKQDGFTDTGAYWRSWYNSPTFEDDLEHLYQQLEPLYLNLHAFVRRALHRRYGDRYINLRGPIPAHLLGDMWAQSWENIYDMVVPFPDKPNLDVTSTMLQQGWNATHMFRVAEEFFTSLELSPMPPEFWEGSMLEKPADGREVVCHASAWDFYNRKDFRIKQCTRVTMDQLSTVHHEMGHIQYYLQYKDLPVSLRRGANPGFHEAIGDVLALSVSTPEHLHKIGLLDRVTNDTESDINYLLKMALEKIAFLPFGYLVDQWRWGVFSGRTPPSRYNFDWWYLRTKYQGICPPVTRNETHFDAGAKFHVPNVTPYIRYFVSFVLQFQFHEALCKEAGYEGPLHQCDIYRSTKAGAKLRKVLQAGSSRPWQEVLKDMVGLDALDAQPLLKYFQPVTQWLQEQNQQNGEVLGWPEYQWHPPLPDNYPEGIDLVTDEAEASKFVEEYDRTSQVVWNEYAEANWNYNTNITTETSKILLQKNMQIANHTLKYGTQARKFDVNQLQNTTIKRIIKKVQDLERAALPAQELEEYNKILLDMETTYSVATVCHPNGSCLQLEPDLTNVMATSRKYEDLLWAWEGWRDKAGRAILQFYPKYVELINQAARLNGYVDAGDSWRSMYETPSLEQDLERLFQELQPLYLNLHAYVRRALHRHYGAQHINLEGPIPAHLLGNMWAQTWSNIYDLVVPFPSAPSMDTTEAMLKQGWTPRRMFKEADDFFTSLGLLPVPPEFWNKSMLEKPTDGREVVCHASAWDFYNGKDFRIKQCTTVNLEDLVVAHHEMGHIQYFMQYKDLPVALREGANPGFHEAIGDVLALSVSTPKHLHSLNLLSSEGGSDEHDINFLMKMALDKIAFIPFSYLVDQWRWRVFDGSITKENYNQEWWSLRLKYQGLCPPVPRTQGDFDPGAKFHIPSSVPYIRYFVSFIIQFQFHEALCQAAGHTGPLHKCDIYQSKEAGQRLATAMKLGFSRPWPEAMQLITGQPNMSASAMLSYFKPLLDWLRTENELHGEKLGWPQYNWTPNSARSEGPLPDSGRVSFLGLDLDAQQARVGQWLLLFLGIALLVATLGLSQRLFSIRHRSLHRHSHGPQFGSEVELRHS
Protocol: (§1) For all inhibitory activity, IC50 was calculated. The IC50 value defined as the concentration of the extract inhibiting 50% of the enzyme activity was determined by measuring the enzyme inhibitory activity and peptide contents in each sample. The IC50 value was calculated from the plotted graph of the inhibition activity for the five different peptide concentrations.
The angiotensin converting enzyme was prepared according to the method described by Karaś et al.. For ACE inhibitor activity, 5 μL of ACE was mixed with 5 μL of the samples and, after preincubation at 37 °C for 5 min, 5 μL of a 5 mM N-Hippuryl-L-histidyl-L-leucine (HHL) solution was added. The reaction was carried out at 37 °C for 60 min. Next, 0.1 M borate buffer with 0.2 M NaOH and 70 μL of an o-phthaldialdehyde OPA solution (20 mg/mL OPA in methanol) were added. The absorbance at 390 nm was measured using BioTek Microplate Readers ([…]).
(§2) Substrate solutions (5.0, 10.0, 15.0, and 20.0 mM) were prepared and used to determine the Michaelis constant (Km), the inhibition constant (Ki), and the maximum velocity (Vmax) of enzymes. The kinetic parameters were evaluated by Lineweaver–Burk’s method. The reaction conditions were the same as in the enzyme inhibitory activity assay.

[2] = target: T1, α-amylase from hog pancreas (Sus scrofa, UniProt P00690); test: α-amylase inhibitory activity (starch, DNS) and kinetics
T1 construct: α-amylase from hog pancreas (50 U/mg); from tissue; host or cells: hog pancreas
T1 sequence (P00690 16-511): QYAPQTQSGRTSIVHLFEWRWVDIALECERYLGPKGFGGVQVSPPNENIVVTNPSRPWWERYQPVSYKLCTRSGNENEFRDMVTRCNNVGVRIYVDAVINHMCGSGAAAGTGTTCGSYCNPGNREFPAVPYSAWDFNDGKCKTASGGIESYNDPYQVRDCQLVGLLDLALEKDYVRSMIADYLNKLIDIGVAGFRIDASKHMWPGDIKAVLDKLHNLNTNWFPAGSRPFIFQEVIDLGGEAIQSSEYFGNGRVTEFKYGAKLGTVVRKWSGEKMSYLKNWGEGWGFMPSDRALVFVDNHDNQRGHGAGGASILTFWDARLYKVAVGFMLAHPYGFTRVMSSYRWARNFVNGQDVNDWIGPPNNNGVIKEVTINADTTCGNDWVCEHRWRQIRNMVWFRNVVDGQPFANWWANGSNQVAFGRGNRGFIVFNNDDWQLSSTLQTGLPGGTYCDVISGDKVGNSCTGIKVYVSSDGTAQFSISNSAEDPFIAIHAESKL
Protocol: For all inhibitory activity, IC50 was calculated. […] The IC50 value was calculated from the plotted graph of the inhibition activity for the five different peptide concentrations. […] To measure the α-amylase inhibitory activity, a mixture of 25 μL of α-amylase solution and 25 μL of sample was first incubated at 40 °C for 5 min. Then, 50 μL of 1% (w/v) soluble starch (dissolved in 100 mM phosphate buffer containing 6 mM NaCl, pH 7) was added. After 10 min, the reaction was stopped by adding 100 μL of 3,5-dinitrosalicylic acid (DNS) and heating for 10 min. Then, the mixture was made up to 300 μL with double distilled water. After that, the absorbance at 540 nm was measured using BioTek Microplate Readers (EpochTM 2 BioTek, Bad Friedrichshall, Germany). The final results were compared with the activity of the same amount of enzyme without the inhibitor. All assays were carried out in triplicate. For IC50 value determination, the inhibitory activity for […] of samples was investigated. […] The kinetic parameters were evaluated by Lineweaver-Burk's method. The reaction conditions were the same as in the enzyme inhibitory activity assay.

[3] = target: LOX (Glycine max, UniProt P08170); conditions: read-out: IC50 LOX
Sequence of LOX (P08170 whole entry): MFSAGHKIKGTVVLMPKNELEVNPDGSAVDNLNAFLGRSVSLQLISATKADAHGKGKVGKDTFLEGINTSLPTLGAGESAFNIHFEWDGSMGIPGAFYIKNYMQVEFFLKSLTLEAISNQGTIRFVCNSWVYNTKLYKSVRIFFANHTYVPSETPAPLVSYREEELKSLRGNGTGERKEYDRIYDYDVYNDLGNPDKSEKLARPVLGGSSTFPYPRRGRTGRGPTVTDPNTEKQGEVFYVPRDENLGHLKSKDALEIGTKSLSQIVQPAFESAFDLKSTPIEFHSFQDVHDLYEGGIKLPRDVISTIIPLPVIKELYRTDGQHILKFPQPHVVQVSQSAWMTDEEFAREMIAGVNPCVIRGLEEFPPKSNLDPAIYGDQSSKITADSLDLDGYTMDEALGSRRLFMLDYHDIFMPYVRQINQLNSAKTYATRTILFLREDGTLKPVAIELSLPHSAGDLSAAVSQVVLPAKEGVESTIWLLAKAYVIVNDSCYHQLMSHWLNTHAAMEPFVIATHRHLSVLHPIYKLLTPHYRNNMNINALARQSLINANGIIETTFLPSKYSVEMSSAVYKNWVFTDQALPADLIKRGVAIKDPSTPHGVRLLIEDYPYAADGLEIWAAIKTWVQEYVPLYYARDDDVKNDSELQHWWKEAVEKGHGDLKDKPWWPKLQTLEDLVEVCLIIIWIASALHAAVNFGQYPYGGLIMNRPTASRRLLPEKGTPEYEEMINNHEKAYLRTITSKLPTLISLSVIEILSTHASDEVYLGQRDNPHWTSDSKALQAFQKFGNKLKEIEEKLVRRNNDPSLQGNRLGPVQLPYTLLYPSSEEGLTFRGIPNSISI
Protocol: as §1
The LOX inhibitory assay was carried out with the method described by Szymanowska et al.. A solution of pure linoleic acid was used as a substrate. First, 157.2 µl of pure linoleic acid was mixed with 157.2 µL of Tween-20 and 10 mL of deionized water. The substrate was clarified with 1 mL of 1 M NaOH and M/15 phosphate buffer pH = 7.0 was added to the volume of 200 mL. The enzymatic reaction mixture contained 297 µL of M/15 phosphate buffer pH = 7, 2 µl of the substrate solution, and 1 µL of the enzyme solution. A mixture of 298 µl of phosphate buffer (pH 7.0) and 2 µL of the substrate solution was used to calibrate the spectrophotometer. Changes in absorbance at 234 nm were measured using BioTek Microplate Readers.
as §2

[4] = target: T2, COX-1 (Ovis aries, UniProt P05979); test: COX-1 inhibitory activity (COX Activity Assay kit) and kinetics
T2 sequence (P05979 25-600): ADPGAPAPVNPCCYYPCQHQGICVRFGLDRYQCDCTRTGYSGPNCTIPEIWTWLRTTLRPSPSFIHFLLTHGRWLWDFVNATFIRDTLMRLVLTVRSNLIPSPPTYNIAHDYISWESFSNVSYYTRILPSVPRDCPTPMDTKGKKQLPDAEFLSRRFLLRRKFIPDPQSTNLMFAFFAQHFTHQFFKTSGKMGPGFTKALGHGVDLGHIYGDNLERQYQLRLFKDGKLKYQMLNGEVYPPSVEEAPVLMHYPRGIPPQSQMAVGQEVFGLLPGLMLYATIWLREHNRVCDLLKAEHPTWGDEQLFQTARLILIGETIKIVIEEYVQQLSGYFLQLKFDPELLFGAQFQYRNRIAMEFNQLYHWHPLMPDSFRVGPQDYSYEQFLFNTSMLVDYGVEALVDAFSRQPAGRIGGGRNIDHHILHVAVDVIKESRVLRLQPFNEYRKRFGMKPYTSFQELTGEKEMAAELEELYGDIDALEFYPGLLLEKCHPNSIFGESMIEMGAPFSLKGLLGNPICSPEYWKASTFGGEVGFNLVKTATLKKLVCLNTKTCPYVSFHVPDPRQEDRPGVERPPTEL
Protocol: For all inhibitory activity, IC50 was calculated. […] The IC50 value was calculated from the plotted graph of the inhibition activity for the five different peptide concentrations. The effect of the peptide on COX-1 and COX-2 was measured using the COX Activity Assay kit from Cayman Chemical (Item No. 760151, Ann Arbor, MI, USA). COX activity was determined according to the instructions provided with the kit. The enzyme activity was assayed by calorimetric measurement of the appearance of oxidized N,N,N′,N′-Tetramethyl-p-phenylenediamine (TMPD) at 590 nm using BioTek Microplate Readers (Epoch™ 2 BioTek, Bad Friedrichshall, Germany). […] The kinetic parameters were evaluated by Lineweaver–Burk’s method. The reaction conditions were the same as in the enzyme inhibitory activity assay.

EQGFLPGPEESGR [ER-13, EQGFLPGPEESGR]
IC50 [1]: 457 µM
IC50 [2]: 51.1 µM
IC50 [3]: 60.1 µM
IC50 [4]: 4.78 µM

GNPVGGVGHGTTGT [GT-14, GNPVGGVGHGTTGT]
IC50 [1]: 434 µM
IC50 [2]: 50 µM
IC50 [3]: 153 µM
IC50 [4]: 12.3 µM

GQLGEHGGAGMG [GG-12, GQLGEHGGAGMG]
IC50 [1]: 525 µM
IC50 [2]: 53 µM
IC50 [3]: 131 µM
IC50 [4]: 7.11 µM

RLARAGLAQ [RQ-9, RLARAGLAQ]
IC50 ACE [1]: no inhibitory effect
IC50 [2]: 69.9 µM
IC50 ([3]; mean ± SD, triplicate): 205 µM
IC50 [4]: 0.325 µM

YGNPVGGVGH [YH-10, YGNPVGGVGH]
IC50 [1]: 522 µM
IC50 [2]: 80.3 µM
IC50 [3]: 127 µM
IC50 [4]: 17.4 µM

GEHGGAGMGGGQFQPV [GV-16, GEHGGAGMGGGQFQPV]
IC50 [1]: 490 µM
IC50 [2]: 44.6 µM
IC50 [3]: 68.5 µM
IC50 [4]: 8 µM
